Results on one molecule are retold here after US20110152183A1, “DERIVATISED HYBRID PEPTIDES OF AMYLIN AND SALMON CALCITONIN” (Novo Nordisk A/S, priority 2008, published 2011).

In the experiment the target is T1, Amylin 3(a) receptor (human calcitonin receptor (CTa) + RAMP-3) (Homo sapiens, UniProt O60896+P30988).
T1 construct: expressed in transfected cells; host or cells: BHK570 (baby hamster kidney) cells, stably transfected, with a CRE-luciferase reporter
Put plainly: Amylin luciferase assay (II), CRE luciferase reporter in BHK cells. In kind it is cell-based. To be noted: BHK Amylin 3(a)//CRE-luc cells, 4 hours incubation. The text has this: It has previously been published (Poyner D R et al 2002, Pharmacological Reviews 54 (2) 233-246) that activation of Amylin receptors (coexpression of Calcitonin receptor and receptor activity modifying peptides RAMPs) by Amylin leads to an increase in the intracellular concentration of cAMP. Consequently, transcription is activated at promotors containing multiple copies of the cAMP response element (CRE). It is thus possible to measure Amylin activity by use of a CRE luciferase reporter gene introduced into BHK cells also expressing an Amylin receptor.
2. Construction of An Amylin 3(a)/CRE-Luc Cell Line
A BHK570 cell line stably transfected with the human calcitonin receptor (CTa) and a CRE-responsive luciferase reportergene. The cell line was further transfected with RAMP-3, using standard methods. This turns the Calcitonin receptor into an Amylin 3(a) receptor. Methotrexate, Neomycin, and Hygromycin are selection markers for luciferase, the Calcitonin receptor, and RAMP-3, respectively.
3. Amylin Luciferase Assay
To perform activity assays, BHK Amylin 3(a)//CRE-luc cells were seeded in white 96 well culture plates at a density of about 20.000 cells/well. […] Finally, luminescence was measured on a TopCounter (Packard) in SPC (single photon counting) mode.
(In general: In a reporter assay the amount or activity of a reporter protein is the signal.)

Peptide text beside a SMILES is read from it.

T1 sequence (O60896 24-148): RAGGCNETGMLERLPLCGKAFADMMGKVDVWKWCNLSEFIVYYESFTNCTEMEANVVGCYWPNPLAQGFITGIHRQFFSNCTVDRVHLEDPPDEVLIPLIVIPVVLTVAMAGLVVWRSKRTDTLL
T1 sequence (P30988 25-474): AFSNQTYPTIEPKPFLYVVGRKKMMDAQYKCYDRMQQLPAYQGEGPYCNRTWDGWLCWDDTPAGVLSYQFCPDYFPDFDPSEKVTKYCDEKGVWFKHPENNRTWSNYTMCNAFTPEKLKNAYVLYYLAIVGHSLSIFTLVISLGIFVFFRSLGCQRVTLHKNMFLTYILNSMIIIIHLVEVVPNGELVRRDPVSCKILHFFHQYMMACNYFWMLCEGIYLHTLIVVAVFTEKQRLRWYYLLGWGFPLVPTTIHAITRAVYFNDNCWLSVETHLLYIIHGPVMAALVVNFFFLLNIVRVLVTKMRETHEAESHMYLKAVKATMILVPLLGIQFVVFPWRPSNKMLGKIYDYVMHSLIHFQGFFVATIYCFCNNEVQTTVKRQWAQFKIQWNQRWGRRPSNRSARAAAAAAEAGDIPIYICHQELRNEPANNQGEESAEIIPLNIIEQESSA

Consider `CC(C)C[C@H](NC(=O)[C@H](C)NC(=O)[C@@H]1CSSC[C@H](NC(=O)[C@@H](N)CCCCN)C(=O)N[C@@H](CC(N)=O)C(=O)N[C@@H]([C@@H](C)O)C(=O)N[C@@H](C)C(=O)N[C@@H]([C@@H](C)O)C(=O)N1)C(=O)NCC(=O)N[C@@H](CCCNC(=N)N)C(=O)N[C@@H](CC(C)C)C(=O)N[C@@H](CO)C(=O)N[C@@H](CCC(N)=O)C(=O)N[C@@H](CCC(=O)O)C(=O)N[C@@H](CC(C)C)C(=O)N[C@@H](Cc1c[nH]cn1)C(=O)N[C@@H](CCCNC(=N)N)C(=O)N[C@@H](CC(C)C)C(=O)N[C@@H](CCC(N)=O)C(=O)N[C@H](C(=O)N[C@@H](Cc1ccc(O)cc1)C(=O)N1CCC[C@H]1C(=O)N[C@@H](CCCNC(=N)N)C(=O)N[C@H](C(=O)N[C@@H](CC(N)=O)C(=O)N[C@H](C(=O)NCC(=O)N[C@@H](CO)C(=O)N[C@@H](CC(N)=O)C(=O)N[C@H](C(=O)N[C@@H](Cc1ccc(O)cc1)C(N)=O)[C@@H](C)O)[C@@H](C)O)[C@@H](C)O)[C@@H](C)O` [Example 4, Amylin (1-8)-[Arg11,Arg18]sCT (9-27)-amylin (33-37)] (HELM PEPTIDE1{K.C.N.T.A.T.C.A.L.G.R.L.S.Q.E.L.H.R.L.Q.T.Y.P.R.T.N.T.G.S.N.T.Y.[am]}$PEPTIDE1,PEPTIDE1,2:R3-7:R3$$$V2.0; N-terminus assumed), for which the EC50 (as a rule, the midpoint of the concentration-response curve) turned out to be 3 pM.
